Experimental data taken from US8623889B2, “Substituted 6,6-fused nitrogenous heterocyclic compounds and uses thereof” (Genentech, Inc., priority 2010, dated 2014).

Legend:
HL-60 cells = test: HL-60 cell proliferation assay (CellTiter-Glo); assay type: cell-based; conditions: 4 days incubation
Source text: HL-60 cells are a Philadelphia Chromosome Negative (Ph-) cell line that serve as a control for the K-562 proliferation assay. Compounds that exert their activity by inhibition of Abl kinase should not inhibit proliferation of HL-60 cells unless such activity is due to off-target activity. This assay determines the number of viable cells in a culture by quantification of ATP. Promega's CellTiter-Glo® Luminescent Cell Viability Assay (CTG) is the reagent used for this determination. The assay is homogenous. Addition of the CTG reagent results in cell lysis and generation of a luminescent signal through the luciferase reaction. The luminescent signal is proportional to the amount of ATP present. For compounds that interfere with cell division and/or have effects on cell size, the readout is not necessarily proportional to cell number/viability. […] Cytostatic: Luminescence counts should be equivalent to counts obtained from a Day 0 read; and Cytotoxic: Luminescence counts should be equivalent to background. • Seed cells at 20000 cells/well in 20 ul cell plating media into a 384 well cell plate. […] Incubate in humidified CO2 incubator • Day 4a: Add 40 uL of Cell Titer-Glo solution • Day 4b: Incubate CTG reaction • Day 4c: Read luminescence

K-562 cells = test: K-562 cell proliferation assay (CellTiter-Glo); assay type: cell-based; conditions: Homo sapiens, K562, 96 h; expected value of assay standard; 4 days incubation; read-out: EC50 to inhibit K-562 cell growth
Source text: The luminescent signal is proportional to the amount of ATP present.

EC50 to inhibit HL-60 cell growth (in words) (HL-60 cells; expected result of assay standard) | Compound | EC50 (K-562 cells) | EC50 (HL-60 cells; Homo sapiens, HL-60, 96 h, expected value of assay standard, read-out: EC50 to inhibit HL-60 cell growth)
Inactive | CS(=O)(=O)O.Cc1ccc(NC(=O)c2ccc(CN3CCN(C)CC3)cc2)cc1Nc1nccc(-c2cccnc2)n1 [CAS NO 220127-57-1] | – | –
– | COC(=O)Nc1nc2ccc(C(=O)c3cccs3)cc2[nH]1 [Nocodazole] | ~40 nM | ~40 nM
